Columns and labels:
[1] = tested on: TNF-α production in THP-1 (human monocyte cell line); assay: Inhibitory activity against TNF-α production using human cell lines (LPS-stimulated THP-1); assay type: cell-based; conditions: 1.5 h, THP-1 cells stimulated by LPS, cultured for 90 minutes, TNF-α by ELISA
Experimental: (2) Inhibitory Activity Against TNF-α Production Using Human Cell Lines
Using THP-1 which is a human monocyte cell line, the inhibitory effect of the compound of the present invention against TNF-α production stimulated by lipopolysaccharide (LPS) was studied.
Each 50 μL of lipopolysaccharide (LPS; Difco #3120-25-0) prepared to a concentration of 40 ng/mL using RPMI-1640 medium containing 10% fetal calf serum (hereinafter abbreviated as RPMI-1640) and RPMI-1640 containing the compound of the present invention was added to a 96-well plate for cell culture. One hundred μL of the cell suspension of THP-1 (Dainippon Pharmaceutical Co., Ltd, #06-202) prepared to a cell density of 2×10^6 cells/mL using RPMI-1640 was added and cultured for 90 minutes at 37° C. in an incubator (5% CO2, 95% air). After completion of the reaction, the culture medium supernatant was recovered and the amount of produced TNF-α was measured using an ELISA kit (Invitrogen, #850090192).
The inhibitory activity against TNF-α production, which is the effect of the compound of the present invention, was calculated as an inhibition rate (%) by the following equation: Inhibition rate (%)={(AC minus AX)/(AC minus AB)}×100 wherein AB is a measured value without LPS induction; AC is a measured value with LPS induction in the absence of a test compound; and AX is a measured value with LPS induction in the presence of a test compound. Inhibition rate of compounds with each concentration was calculated, and a value indicating 50% inhibition (IC50) was determined from the inhibition curve.

[2] = molecular target: recombinant human p38 αMAP kinase (Homo sapiens, UniProt Q16539); assay: Study on p38 αMAP kinase inhibitory activity (ATF-2 phosphorylation, Alpha Screen); assay type: biochemical; conditions: phosphorylation of biotinylated ATF2 by recombinant human p38 αMAP kinase, 30° C. for 30 minutes
Sequence of recombinant human p38 αMAP kinase (Q16539 whole entry): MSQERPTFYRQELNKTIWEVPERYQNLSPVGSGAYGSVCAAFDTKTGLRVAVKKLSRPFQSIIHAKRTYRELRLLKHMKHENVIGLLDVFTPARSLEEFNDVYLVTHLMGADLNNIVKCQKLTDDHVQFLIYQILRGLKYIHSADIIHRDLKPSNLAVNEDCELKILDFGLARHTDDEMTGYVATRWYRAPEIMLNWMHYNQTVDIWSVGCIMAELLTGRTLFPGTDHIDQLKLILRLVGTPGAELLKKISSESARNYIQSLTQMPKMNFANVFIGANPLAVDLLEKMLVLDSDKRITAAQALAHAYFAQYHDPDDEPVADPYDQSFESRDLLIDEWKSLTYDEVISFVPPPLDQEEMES
Experimental: (1) Study on p38 αMAP Kinase Inhibitory Activity
Using activation transcription factor 2 (hereinafter abbreviated as ATF-2) which is a substrate for p38 αMAP kinase, the inhibitory action of the compounds of the present invention was investigated on the phosphorylation by a recombinant human p38 αMAP kinase.
A kinase buffer (25 mM Tris-HCl (pH 7.5), 5 mM β-glycerophosphate, 2 mM dithiothreitol, 0.1 mM Na3VO4, 10 mM MgCl2) containing a recombinant human p38 αMAP kinase was added to a 384-well plate (5 μL)(6.25 μg protein/well) for fluorescence measurement. After addition of a kinase buffer (5 μL) containing the compound of the present invention, the resulting mixture was incubated at room temperature for 20 minutes. A substrate mixture (5 μL) of biotinylated ATF2 of 5 μg/mL (Upstate Biotechnology #14-432), adenosine triphosphate (90 μmol/L)(Sigma #FL-AAS) and anti-phosphorylated ATF2 antibody (20-fold dilution)(Cell Signaling Technology #9221L) prepared separately was added thereto, and enzyme reaction was carried out at 30° C. for 30 minutes. After the reaction, Herpes buffer (5 μL) containing 0.25% BSA and 100 mM EDTA was added to stop the enzyme reaction. The amount of a complex of the phosphorylated ATF2 and anti-phosphorylated ATF2 antibody produced by the reaction was measured using an Alpha Screen™ Rabbit Detection kit (Packard #6760607).
The p38 αMAP kinase inhibitory activity, which is the effect of the compound of the present invention, was calculated as an inhibition rate (%) according to the following equation: Inhibition rate (%)={(AC minus AX)/(AC minus AB)}×100 wherein AB is a measured value without addition of the enzyme; AC is a measured value with addition of the enzyme in the absence of a test compound; and AX is a measured value with addition of the enzyme in the presence of a test compound.
Inhibition rate of compounds with each concentration was calculated, and a value indicating 50% inhibition (IC50) was determined from the inhibition curve.

[3] = tested on: TNF-α production induced by lipopolysaccharide (LPS); assay: Rat cytokine-production model (LPS-induced TNF-α production in vivo); conditions: dose of 10 mg/kg orally; LPS 10 μg/kg intravenously after 2.0 hours; plasma ninety minutes after LPS
Experimental: (3) Rat Cytokine-Production Model
The in vivo effect of the compound of the present invention was studied on TNF-α production induced by lipopolysaccharide (LPS) in rats.
A medium containing the compound of the present invention was orally administered to male […] (Charles River Japan, Inc.), and after 2.0 hours, lipopolysaccharide (LPS, 055:B5, Difco) was intravenously administered at the dose of 10 μg/kg (5 animals/group). Only a medium was orally administered to a control group (5 animals). Ninety minutes after the LPS treatment, heparinized blood collection was performed via the abdominal cava vein under anesthesia with ether, and blood plasma was obtained by centrifugation (12,000 rpm, 3 minutes, 4° C.). The obtained blood plasma sample was stored at −80° C. until it was used. TNF-α in the blood plasma was measured using an ELISA kit from Genzyme/Techne (#10516).
The inhibitory activity of the compound of the present invention against TNF-α production was calculated as an inhibition rate (%) according to the following equation: Inhibition rate (%)={(AC minus AX)/AC}×100 wherein AC is a measured value in case where no test compound was administered under LPS induction, and AX is a measured value in case where a test compound was administered under LPS induction.

Human CYP3A4 = assay: Evaluation of human CYP3A4 induction activity (HepG2 cells, hPXR/CYP3A4 luciferase reporter); assay type: in vitro ADME; conditions: concentration of 10 μM, rifampicin (10 μmol/L) set to 100%
Experimental: (4) Evaluation of Human CYP3A4 Induction Activity
HepG2 cells were cultured in a 5% CO2 incubator at 37° C., using a medium [MEM(+)] prepared by adding 1/100-fold amount of non-essential amino acids for MEM Eagle's medium (100×, ICN, #1681049), Antibiotic-Antimycotic (100×, Gibco, #15240-096), L-glutamine 200 mM (100×, Gibco, #25030-081) and 1/10-fold amount of fetal bovine serum (Sigma, #F9423) to a minimum essential medium Eagle (Mod.) with Earle's salts without L-glutamine. The medium was exchanged once every 2 to 3 days. About one-fifth of the cells which were cultured to a confluent state were passaged once a week. HepG2 cells which were cultured to almost confluent state in a 225 cm^2 culture flask were inoculated to a 24-well plate (Iwaki, #3820-024) to a concentration of 5×10^4 cells/MEM(+) of 500 μL/well. […] Twenty μL/well of the prepared cell lysis solution was transferred to a 96-well white plate (Perkin Elmer, #23300), and using a luminometer (Berthold Japan, Microlumat LB96P), each chemical luminescence was measured for 2 to 14 seconds after addition of luciferase assay reagent II [(LARII), 100 μL/well)] and for 2 to 14 seconds after addition of Stop & Glo reagent, 100 μL/well). […]
The CYP3A4 induction activity was calculated by setting a rise in transcription activity of CYP3A4 to 100% when using rifampicin (10 μmol/L) as a positive control drug.

Human CYP2C9 = Human CYP2C9 (Homo sapiens, UniProt P11712); assay: Evaluation of human CYP2C9 inhibitory activity; assay type: in vitro ADME
Sequence of Human CYP2C9 (P11712 whole entry): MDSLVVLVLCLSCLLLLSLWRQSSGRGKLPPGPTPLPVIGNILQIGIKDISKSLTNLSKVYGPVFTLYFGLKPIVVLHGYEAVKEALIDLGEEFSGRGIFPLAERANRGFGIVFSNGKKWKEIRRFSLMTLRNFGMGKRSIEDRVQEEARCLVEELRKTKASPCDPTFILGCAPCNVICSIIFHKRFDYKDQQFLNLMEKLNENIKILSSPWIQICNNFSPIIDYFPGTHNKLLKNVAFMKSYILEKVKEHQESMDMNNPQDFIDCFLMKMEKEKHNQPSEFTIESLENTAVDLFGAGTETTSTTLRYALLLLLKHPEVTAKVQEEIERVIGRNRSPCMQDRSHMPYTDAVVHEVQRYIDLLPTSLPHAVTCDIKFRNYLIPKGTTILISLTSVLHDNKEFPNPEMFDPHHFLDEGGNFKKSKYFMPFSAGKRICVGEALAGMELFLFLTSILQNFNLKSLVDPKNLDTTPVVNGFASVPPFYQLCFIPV
Experimental: (5) Evaluation of Human CYP2C9 Inhibitory Activity
The CYP2C9 inhibitory activity of the compound of the present invention was evaluated by enhancing measurement precision and improving measurement sensitivity on the basis of Sato et. al method [Pharmacokinetics, Xenobio. Metabol. and Dispos., 16(2), 115-126 (2001)].

IC50 [1] [nM] | IC50 [2] [nM] | IC50 (Human CYP2C9) [nM] | SMILES | inhibition against in vivo TNF-α production induced by LPS stimulation [3] [%] | CYP3A4 induction activity (Human CYP3A4)
21 | 2.5 |  | Cc1ccc(-n2nc(C(C)(C)C)cc2NC(=O)Nc2cc(CN3CCN(C(=O)c4ccc(CN5CCN(C)CC5)cc4)CC3)ccc2Cl)cc1 [13(2), N-[3-t-butyl-1-(4-methylphenyl)-1H-pyrazol-5-yl]-N′-{2-chloro-5-[(4-{4-[(4-methylpiperazin-1-yl)methyl]benzoyl}piperazin-1-yl)methyl]phenyl}urea] |  | 
2.3 | 2.9 |  | Cc1ccc(-n2nc(C(C)(C)C)cc2NC(=O)Nc2ccc(CN3CCC(=O)N(c4ccccc4C)C3)cc2)cc1 [Example 4(1), N-[3-t-butyl-1-(4-methylphenyl)-1H-pyrazol-5-yl]-N′-(4-{[3-(2-methylphenyl)-4-oxotetrahydropyrimidin-1(2H)-yl]methyl}phenyl)urea] | 72.8 | 
35 | 5.6 | 21000 | Cc1ccc(-n2nc(C(C)(C)C)cc2NC(=O)Nc2ccc(CN3CCN(C(=O)c4ccc(CN5CCN(C)CC5)cc4)CC3)cc2C)cc1 [Example 13(1), N-[3-t-butyl-1-(4-methylphenyl)-1H-pyrazol-5-yl]-N′-{2-methyl-4-[(4-{4-[(4-methylpiperazin-1-yl)methyl]benzoyl}piperazin-1-yl)methyl]phenyl}urea] |  | did not show CYP3A4 induction activity at all
17 | 3.8 |  | Cc1ccc(-n2nc(C(C)(C)C)cc2NC(=O)Nc2ccc(OC3CCN(C(=O)c4ccc(CN5CCN(C)CC5)cc4)CC3)cc2C)cc1 [Example 17, N-[3-t-butyl-1-(4-methylphenyl)-1H-pyrazol-5-yl]-N′-{2-methyl-4-[(1-{4-[(4-methylpiperazin-1-yl)methyl]benzoyl}piperidin-4-yl)oxy]phenyl}urea] |  | 
